Read-outs that look alike come from different tables or passages of the source.
Legend:
[1] = tested on: Influenza A/Duck/MN/1525/81 (H5N1); parameters: species or system mice; conditions: mouse, in vivo
[2] = tested on: Influenza A/Duck/MN/1525/81 (H5N1); parameters: species or system mice; conditions: mouse, in vivo; remark: listed apart in the source
[3] = tested on: Influenza A/Duck/MN/1525/81 (H5N1); parameters: species or system mice; conditions: mouse, in vivo; remark: listed apart in the source
[4] = tested on: Influenza A/Duck/MN/1525/81 (H5N1); parameters: species or system mice; conditions: mouse, in vivo; remark: listed apart in the source
[5] = tested on: Influenza A/Duck/MN/1525/81 (H5N1); parameters: species or system mice; conditions: mouse, in vivo; remark: listed apart in the source
[6] = tested on: human PBMCs activated with Poly r(I:C); test: cells; assay type: cell-based; conditions: for EC50: read-out: EC50 for reduction of cytokine release (TNFalpha production) from human PBMCs

Compound	MDD (mean day of death) [1]	Survival [1]	Lung cytokine concentration, CCL2 Average [2]	Lung cytokine concentration, IFNg Average [2]	Lung cytokine concentration, IL-6 Average [2]	Lung cytokine concentration, IL-10 Average [2]	Lung cytokine concentration, IL-12 Ave [2]	Average % loss (animal weight loss as percent of initial weight) [3]	Lung score, Mean [4]	Lung weight, Mean [4]	Mean number of cells (lung) [5]	EC50 ([6]; Homo sapiens, PBMC, 18 h)	EC50 for reduction of cytokine release (TNFalpha production) from human PBMCs [6]	EC50 [6]
CC#CCC(C)C(O)C=CC1C(O)CC2Oc3c(CCCC(=O)[O-])cccc3C21.[Na+] (centres unmarked) [Beraprost, 2,3,3a,8b-tetrahydro-2-hydroxyl-1-(3-hydroxyl-4-methyl-1-octen-6-ynyl)-1H-cyclopenta[b]benzofuran-5-butanoic acid, sodium salt]	11.5	3/10	1308 pg/mL	1601 pg/mL	604 pg/mL	621 pg/mL	3517 pg/mL	76%	2.0	0.24 grams	2.63	11 nM	–	–
CC#CCC(C)C(O)C=CC1C(O)CC2Oc3c(CCCC(=O)O)cccc3C21 (single isomer, unassigned; isomer d) [Isomer D]	7	0/10	2347 pg/mL	2074 pg/mL	1291 pg/mL	758 pg/mL	2603 pg/mL	68%	3.50	0.37 grams	–	–	No	–
CC#CC[C@H](C)[C@H](O)/C=C/[C@@H]1[C@H]2c3cccc(CCCC(=O)[O-])c3O[C@H]2C[C@H]1O.[Na+] (single isomer, unassigned; isomer a) [Isomer A]	13	4/10	953 pg/mL	1046 pg/mL	521 pg/mL	223 pg/mL	3800 pg/mL	76%	2.00	0.22 grams	1.15	–	–	4 nM
